For 88 compounds, melting point results are on record in a melting point compilation (Tetko et al.; mined from patent text by program, amines drawn as free bases though some values may be those of a salt).

SMILES strings stand for the structures.

Take `Cc1cc(C)cc(Nc2ccc(Nc3ccccc3)c3c2C(=O)c2ccccc2C3=O)c1`: the melting point came to 220 °C. The compound `Cc1nc2c(O)c(CC[C@H](O)c3ccccc3)c(C(=O)N(C)C)cn2c1C` showed a melting point of 185 to 187 °C.

In turn, `Cc1cc(SCN(O)CSc2cc(C)c(O)c(C(C)(C)C)c2)cc(C(C)(C)C)c1O` registered a melting point of 115 to 118 °C. For `O=S1(=O)N=C(NCc2ccco2)Nc2cc(Cl)sc21`, the melting point was 224 to 225 °C. The same measure for `COCCOCCOC(=O)C1C=Nc2c(ccc3cccnc23)C1=O` (stereo not drawn): 164 to 165 °C; for `O=C(O)CC1(CC(O)=NO)CCCCC1`: 104 °C; for `CCC1(CC(=O)OC)OCCc2c1[nH]c1c(CCO)c(F)ccc21` (stereo not drawn): 101 to 103 °C.

Consider `COC(=O)c1ccc(OCCCN2CCN(c3ccc(Cl)nn3)CC2)cc1`, for which the melting point is 128 to 130 °C. The same measure for `COc1nc(Cl)n2nc(SCc3ccccc3)nc2c1Br`: 124 to 125 °C; for `O=C1Nc2cccc(-c3ccoc3)c2C12COc1cc3c(cc12)OCO3` (stereo not drawn): 230 to 231 °C; for `O=c1cc(S)oc2ccccc12`: 207 to 208 °C. The compound `CC(=O)OCC1OC(Oc2cc(C)cc(O)c2C(C)=O)C(OC(C)=O)C(OC(C)=O)C1OC(C)=O` (stereo not drawn) showed a melting point of 140 to 142 °C. The same measure for `CCc1cc(CC)c2oc(C(=O)O)cc(=O)c2c1O`: 218 to 220 °C; for `CCCCCCCC(=O)N(C)Cc1cccc(-c2ccc(C=CC(=O)O)o2)c1`: 96 to 98 °C; for `Cc1ccc2c(c1)oc1c(C(=O)NC3CCCCC3)nn(-c3ccc(Cl)cc3Cl)c12`: 140 to 142 °C. On to `CC(C)(C)c1ccc(NC(=O)NCc2ccc(-n3c(-c4cccnc4N)nc4cccnc43)cc2)cc1`, for which the melting point fell in the range of 210 to 212 °C. In turn, `CCSc1ccc(Cl)c(OS(C)(=O)=O)n1` showed a melting point of 40 to 41 °C. Consider `C[Si](C)(C)c1ccc(O)cc1`, for which the melting point was determined as 76 °C. In turn, `CCOC(=O)c1ccc(NC(=O)C=Cc2ccc3ccccc3c2)cc1` showed a melting point of 173 to 175 °C.

Compound `CN1C(=O)CC[C@]2(C)c3ccc(-c4ccc5ccccc5c4)cc3CC[C@@H]12` displayed a melting point of 221 to 223 °C. In turn, `COc1ccccc1NC(=O)c1nc2c(s1)CN(C)CC2` showed a melting point of 196 to 198 °C. `CS(=O)(=O)c1ccc(-c2nn3c(-c4ccc(F)cc4)coc3c2-c2ccc(F)cc2)cc1` registered a melting point of 200 to 202 °C. The compound `Nn1cnc2cc(C(F)(F)F)ccc21` registered a melting point of 140 to 142 °C.

In turn, `CCCOc1ccccc1-c1nc2cc3c(cc2c(=O)[nH]1)NCN3CC` returned a melting point of 147 to 149 °C. `COc1ccc(Cl)cc1C1(F)C(=O)Nc2ccc(Br)cc21` (stereo not drawn) returned a melting point of 206 to 208 °C.

In turn, `CC(C)c1noc([C@]2(C)CC[C@H](NCC(=O)N3C[C@@H](F)C[C@H]3C#N)C2(C)C)n1` yielded a melting point of 82 to 85 °C. For the compound `CCOC(=O)C1(c2cccs2)CC(CC)=NNC1C` (stereo not drawn), the melting point stood at 127 °C. `CC(C)c1[nH]nc2c1C(=O)c1c(NC(N)=O)cccc1-2`: the melting point was above 250 °C. The compound `COc1ccc2c(c1)C(c1ccccc1)NC(=O)N2CC(F)(F)F` (stereo not drawn) registered a melting point of 168 to 169 °C.

For the compound `CC(C)Cn1cnc2c(N)nc3c(c21)CCCN3`, the melting point is 231 to 233 °C. Compound `CN(c1cccc2cc(C3=NCC(CC(N)=O)S3)[nH]c12)S(=O)(=O)c1cccnc1` (stereo not drawn) came in with a melting point of 185 to 186 °C. `CC12C=CC(C)(CC(=O)C1)O2` gave a melting point of 62 to 63 °C. The same measure for `c1cc(CCC(Cn2ccnc2)Sc2ccc(N3CCCC3)cc2)ccn1` (stereo not drawn): 148 to 149 °C; for `CC12CCC(=O)C([N+](=O)[O-])=C1CCC1C2CCC2(C)C(O)CCC12` (stereo not drawn): 158 to 160 °C. The result for `CC(CNC(=O)N(CCN(C)C(=O)OC(C)(C)C)CCC12CC3CC(CC(C3)C1)C2)Cc1ccncc1` (single isomer, unassigned; (+)) reads 123 to 124 °C. `Cn1c(-c2ccc(C=Cc3ccc(-c4ccccc4)cc3)cc2)cc2ccccc21` yielded a melting point of 254 °C. In the case of `CC(=O)NC(C)(C)c1ccc(CCl)cc1`, the melting point lay in the range of 101 to 103 °C. With `NC1=NN(c2cccc(Cl)n2)C(c2ccccc2)C1` (stereo not drawn), the melting point came out at 188 °C. The same measure for `CCn1cc(C(=O)O)c(=O)c2cc(F)c(N3CCN(S(=O)(=O)c4ccc(C)cc4)CC3)c(F)c21`: 236 to 237 °C; for `CCc1cc2c(s1)-n1c(C)nnc1C(CCC(=O)O)N=C2c1ccc(Cl)cc1` (stereo not drawn): 210 to 212 °C; for `CN(CCc1ccccc1)C(=O)Cn1cc(C=CC=CC(=O)O)c2cc(OCc3ccccc3)ccc21`: 189 to 190 °C.

`CC1CCC2=NNC(=O)CC2C1` (stereo not drawn): the melting point is 116 to 118 °C. In the case of `COc1cc(OCCCN(C)Cc2ccc(OC)c(OC)c2)ccc1NC(=O)c1cccc2c(=O)c3cccc(F)c3[nH]c12`, the melting point is 108 °C.

Turning to `CCC(=O)N1N=C(c2ccc([N+](=O)[O-])c(C)c2)c2cc3c(cc2CC1C)OCO3` (stereo not drawn), the melting point was 172 to 175 °C.

Compound `Cc1c(O)ccc2c(=O)c(-c3ccc(Cl)cc3)coc12` showed a melting point of 275 °C. Consider `CN1CCCN=C1C(Cl)(Cl)[N+](=O)[O-]`, for which the melting point was 92 to 93 °C. In the case of `COc1ccc(C(=O)Nc2ccccc2NC(=O)c2ccc(OC)c(OC)c2)cc1OC`, the melting point is 191 to 192 °C. The result for `Cn1c(=O)oc2cc3c(cc21)OCC31C(=O)Nc2ccccc21` (stereo not drawn) reads above 250 °C; that for `O=C(NC(=O)c1ccccc1)NC1CCN(Cc2ccccc2)CC1`, 179 to 180 °C. On to `CCS(=O)CCON=Cc1nn(-c2c(Cl)cc(C(F)(F)F)cc2Cl)c(N)c1S(C)=O` (stereo not drawn), for which the melting point is 144 to 148 °C. Consider `CN1C(=O)CCC2(C)c3ccc(Sc4cccc5ccccc45)cc3CCC12` (single isomer, unassigned; (+)), for which the melting point lay in the range of 161 to 162 °C. In the case of `O=c1ccc2c([nH]1)CCN(Cc1ccccc1)C2`, the melting point lay within 210 to 212 °C.

The compound `CC(C)(C)OC(=O)NCc1cc(C(C)(C)C)cc(I)c1O` gave a melting point of 196 to 197 °C. As for `CC(Sc1cnn(C(C)(C)C)c(=O)c1Cl)c1ccc(C(C)(C)C)cc1` (single isomer, unassigned; (+)), the melting point was in the range of 102 to 104 °C.

Compound `CCCCC1(C2CCCC2)Cc2cc(OC)c(Cl)c(Cl)c2C1=O` (stereo not drawn) registered a melting point of 122 to 123 °C. With `Cc1ncn(-c2ccc(N3C[C@H](CO)OC3=O)cc2F)n1`, the melting point was in the range of 190 to 192 °C.

The compound `O=C(NCCCl)Nc1ccncc1` came in with a melting point of 120 to 122 °C. For `O=C1Cc2cccc3c2N1C(C(F)(F)F)=C(F)S3`, the melting point lay in the range of 128 to 130 °C. For `CC1(C)Cc2c(c(N3CCOCC3)nc3sc4c(NCCCN5CCCC5=O)ncnc4c23)CO1`, the melting point lay within 216 to 217 °C. `CCOc1ccc(-c2nc(-c3cc4c(c(C(=O)O)c3)OC(C)(C)C4)cs2)cc1OCC` had a melting point of 106 to 107 °C. On to `N#CCCn1nnc2cc3c(cc2c1=O)OC1CCCN1C3=O` (stereo not drawn), for which the melting point lay in the range of 184 to 186 °C. The result for `N#Cc1nn(-c2c(Cl)cc(C(F)(F)F)cc2Cl)cc1C=O` reads 168 °C; that for `CNc1cc(Oc2ccc(NC(=O)Nc3ccc(-c4ccncc4)c(C(F)(F)F)c3)cc2)ncn1`, 127 to 130 °C; that for `COc1cc(Nc2nccc(-c3ccc(N4CC[C@@H](N(C)C)C4)nc3)n2)cc(OC)c1OC`, 150 to 151 °C. As for `CC(C)(C)[Si](C)(C)Oc1cccc2[nH]ccc12`, the melting point was in the range of 80 to 81 °C. Turning to `CCCC(=O)c1cnc2c(OC)cccc2c1Nc1ccc(OC)cc1C`, the melting point lay in the range of 161 to 163 °C.

As for `COc1ccccc1N(CC(=O)N(C)c1ccccc1)C(=O)CNC(=O)Nc1cccc(C)c1`, the melting point was 212 °C. Regarding `CCS(=O)(=O)N(C(C)=O)c1cc(-n2nc(C(F)(F)F)n(C)c2=O)c(F)cc1C#N`, the melting point came out at 179 °C. With `CCOC(=O)C1=C(C)NC(=S)N(C(=O)OCC)C1c1cccc2nonc12` (stereo not drawn), the melting point lay in the range of 144 to 146 °C. `CCNC(=Nc1ccccc1N1CCOCC1)NCC` showed a melting point of 101 to 102 °C. As to `O=c1cc(-c2ccncc2)nc2n1CCN2`, the melting point lay in the range of 318 to 320 °C.

Compound `COc1cccc(NC(C)=O)c1C(=O)NC1CCN(C(C)CC(C(=O)N(C)C)(c2ccccc2)c2ccccc2)CC1O` (stereo not drawn) had a melting point of 146 °C. `C=C(CN(C)C)c1ccc(NC(=O)NC)cc1`: the melting point fell in the range of 123 to 124 °C. The same measure for `Nc1c(F)c(N2Cc3cccc(Cl)c3C2)c(F)c2c1c(=O)c(C(=O)O)cn2C1CC1`: above 280 °C. In turn, `O=C(O)c1cnc2n(c1=O)CCc1ccc(O)cc1-2` had a melting point of 326 to 327 °C. The compound `Cc1cc(SCc2cc(-c3ccc(Cl)cc3)on2)ccc1OCC(=O)O` gave a melting point of 79 to 80 °C. With `O=C(O)C1(C(=O)Nc2ccc(F)cc2F)CC1`, the melting point was 160 to 163 °C.

Compound `CCOC(=O)C1=Cc2cc(Cl)c(O)cc2OC1C(F)(F)F` (stereo not drawn) yielded a melting point of 118 to 125 °C. The result for `COC(=O)Cc1ccc(Oc2ccc(C#N)cc2)cc1` reads 58 to 60 °C; that for `C=CC(C)Nc1c(-c2c(F)cc(F)cc2F)c(Cl)nc2ncnn12` (stereo not drawn), 101 °C; that for `Cc1cccc(C)c1C(=O)OC1CCCCC1=O` (stereo not drawn), 82 to 83 °C. Take `c1cncc(-c2ccnc3nc(N4CCNCC4)nn23)c1`: the melting point was 156 to 158 °C. The compound `COc1ccc(NC(=O)c2ccccc2F)c(C(C)=O)c1OC` gave a melting point of 106 to 108 °C. `CCCCCCCCCCCCCCOc1ccc(O)cc1` yielded a melting point of 81 to 82 °C. The result for `Oc1ncnc2nc(C(F)(F)F)ccc12` reads 268 to 269 °C; that for `COC(=O)Cc1coc2cc(C(=O)NC(C(=O)NCc3ccccc3)c3ccccc3)ccc12` (stereo not drawn), 129 to 131 °C; that for `Oc1ccc(C2=C(c3ccccc3)CCCc3cc(OC4CCCCO4)ccc32)cc1` (stereo not drawn), 183 to 185 °C. Turning to `COc1cc2c(Oc3cccc4[nH]ccc34)ncnc2cc1OCCCN1CCCCC1`, the melting point is 80 to 82 °C.
